Data reported in US20240208970A1, “SUBSTITUTED HYDANTOIN COMPOUNDS, METHODS FOR PREPARATION THEREOF AND USE THEREOF IN THE TREATMENT AND/OR PREVENTION OF A CORONA VIRUS DISEASE” (priority 2021, published 2024).

What was measured:
[1] = target: M^pro (Severe acute respiratory syndrome coronavirus 2 (2019-nCoV) (SARS-CoV-2), UniProt P0DTD1); type: binding; details: steady-state analysis, 25° C.
[2] = target: SARS-CoV-2 M^pro protease (Severe acute respiratory syndrome coronavirus 2 (2019-nCoV) (SARS-CoV-2), UniProt P0DTD1); assay: biochemical; type: biochemical; details: M^pro 75 nM, substrate 10 μM

| SMILES | Kd [1] [µM] | IC50 ([2]; Tables 5B-5E) [µM] | IC50 ([2]; Table 5A) [µM] |
| --- | --- | --- | --- |
| O=C1NC2(CC(c3ccccc3Cl)C2)C(=O)N1c1cncc2c(F)c(F)c(F)cc12 (single isomer, unassigned) [Compound 59, 2-(2-chlorophenyl)-7-(6,7,8-trifluoroisoquinolin-4-yl)-5,7-diazaspiro[3.4]octane-6,8-dione] | 0.25 | 6.6 | – |
| O=C1NC2(CC(c3ccccc3Cl)C2)C(=O)N1c1cncc2cnccc12 (centres unmarked) [Compound 51, 2-(2-chlorophenyl)-7-(2,7-naphthyridin-4-yl)-5,7-diazaspiro[3.4]octane-6,8-dione] | 0.029 | 0.141 | – |
| O=C1NC2(CC(c3ccccc3Cl)C2)C(=O)N1c1cncc2nccnc12 (centres unmarked) [Compound 52, 2-(2-chlorophenyl)-7-(pyrido[3,4-b]pyrazin-8-yl)-5,7-diazaspiro[3.4]octane-6,8-dione] | 0.134 | 0.394 | – |
| O=C1NC2(CC(c3ccccc3Cl)C2)C(=O)N1c1cncc2cccc(F)c12 (centres unmarked) [Compound 53, 2-(2-chlorophenyl)-7-(5-fluoroisoquinolin-4-yl)-5,7-diazaspiro[3.4]octane-6,8-dione] | 0.042 | 0.253 | – |
| O=C1NC2(CC(c3ccccc3Cl)C2)C(=O)N1c1cncc2c(F)c(F)c(F)cc12 (single isomer, unassigned) [Compound 60, 2-(2-chlorophenyl)-7-(6,7,8-trifluoroisoquinolin-4-yl)-5,7-diazaspiro[3.4]octane-6,8-dione] | 0.364 | 1.37 | – |
| O=C1NC2(CC(C3CCC3)C2)C(=O)N1c1cncc(F)c1 (centres unmarked) [Compound 13, 2-cyclobutyl-7-(5-fluoropyridin-3-yl)-5,7-diazaspiro[3.4]octane-6,8-dione] | 66 ± 14 | – | 6.7 |
| O=C1NC2(CC(c3ccccc3Cl)C2)C(=O)N1c1cccnc1F (centres unmarked) [Compound 62, 2-(2-chlorophenyl)-7-(2-fluoropyridin-3-yl)-5,7-diazaspiro[3.4]octane-6,8-dione] | 0.036 | 0.201 | – |
